From PubChem BioAssay AID1117328 (Cheminformatics & Chemogenomics Research Group (CCRG), …, 2015)
The source made the active and inactive calls. No rule for the calls is given here.

What follows are molecules tested against Ribosomal protein S6 kinase beta-1 (Homo sapiens) (UniProt P23443) (assay: inhibition of human S6K1 enzyme activity – biochemical, LANCE Ultra TR-FRET (AID 1117328)). Settings: LANCE Ultra TR-FRET kinase assay, p70S6K1; at 20 µM (top of the series).
Sequence of Ribosomal protein S6 kinase beta-1 (Homo sapiens) (P23443 whole entry, looked up): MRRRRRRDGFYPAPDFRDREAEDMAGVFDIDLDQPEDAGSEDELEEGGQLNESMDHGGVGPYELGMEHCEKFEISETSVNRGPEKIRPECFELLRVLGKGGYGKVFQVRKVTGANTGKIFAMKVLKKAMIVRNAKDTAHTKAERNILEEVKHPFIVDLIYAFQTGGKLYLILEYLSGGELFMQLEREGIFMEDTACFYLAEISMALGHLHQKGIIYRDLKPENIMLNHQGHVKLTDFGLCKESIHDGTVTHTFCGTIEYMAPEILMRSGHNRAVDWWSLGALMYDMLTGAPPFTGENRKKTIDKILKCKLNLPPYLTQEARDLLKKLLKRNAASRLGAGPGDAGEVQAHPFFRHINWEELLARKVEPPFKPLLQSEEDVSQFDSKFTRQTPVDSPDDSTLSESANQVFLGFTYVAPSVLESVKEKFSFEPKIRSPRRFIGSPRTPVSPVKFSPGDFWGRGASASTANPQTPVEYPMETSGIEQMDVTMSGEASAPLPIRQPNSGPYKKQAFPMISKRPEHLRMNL

| SMILES | inhibition |
| --- | --- |
| COC(=O)c1nc(Cl)c(Cl)nc1N | 1.07% (inactive) |
| CCC1=C[C@@H]2CN(C1)Cc1c([nH]c3ccccc13)[C@@](C(=O)OC)(c1cc3c(cc1OC)N(C)[C@H]1[C@@](O)(C(=O)OC)[C@H](OC(C)=O)[C@]4(CC)C=CCN5CC[C@]31[C@@H]54)C2 | -0.16% (inactive) |
| CC[C@]1(O)C[C@H]2CN(CCc3c([nH]c4ccccc34)[C@@](C(=O)OC)(c3cc4c(cc3OC)N(C=O)[C@H]3[C@@](O)(C(=O)OC)[C@H](OC(C)=O)[C@]5(CC)C=CCN6CC[C@]43[C@@H]65)C2)C1 | 5.42% (inactive) |
| O=C(NOCC1CC1)c1ccc(F)c(F)c1Nc1ccc(I)cc1Cl | -1.64% (inactive) |
| CC[C@@H]([C@H](C)O)n1ncn(-c2ccc(N3CCN(c4ccc(OC[C@@H]5CO[C@@](Cn6cncn6)(c6ccc(F)cc6F)C5)cc4)CC3)cc2)c1=O | -23% (inactive) |
| COC(=O)Nc1nc2ccc(C(=O)c3cccs3)cc2[nH]1 | -23.9% (inactive) |
| CCCCc1oc2ccccc2c1C(=O)c1cc(I)c(OCCN(CC)CC)c(I)c1 | -4.08% (inactive) |
| CCCN(CCC)C(=O)C(CCC(=O)OCCCN1CCN(CCOC(=O)Cc2c(C)n(C(=O)c3ccc(Cl)cc3)c3ccc(OC)cc23)CC1)NC(=O)c1ccccc1 (stereo not drawn) | -0.47% (inactive) |
| CCCCCCCCCCCCCCCCCCNC(=O)OC1CCN(C(=O)OC[C@H](COC(=O)N(Cc2cccc[n+]2CC)C(=O)c2ccccc2OC)OC)CC1 | -363% (inactive) |
| Cc1nc2ccc(CN(C)c3ccc(C(=O)N[C@@H](CCC(=O)O)C(=O)O)s3)cc2c(=O)[nH]1 | 26.6% (inactive) |
| S=c1nc[nH]c2nc[nH]c12 | 22.2% (inactive) |
| Cc1cc2c(C(C)C)c(O)c(O)c(C=O)c2c(O)c1-c1c(C)cc2c(C(C)C)c(O)c(O)c(C=O)c2c1O | -7.01% (inactive) |
| CCN(CC)CCOc1ccc(/C(=C(\Cl)c2ccccc2)c2ccccc2)cc1 | 7.41% (inactive) |
| Cc1cc(=O)c2c(O)c3c(O)cc(=O)c4c3c3c(cc(O)c1c23)C(C)(C)C=4O | 12.5% (inactive) |
| O=c1c(-c2ccccc2)c1-c1ccccc1 | 5.11% (inactive) |
| COC(=O)Nc1nc2ccc(Sc3ccccc3)cc2[nH]1 | -5.93% (inactive) |
| O=c1[nH]c(=O)n([C@H]2C[C@H](O)[C@@H](CO)O2)cc1C(F)(F)F | 5.58% (inactive) |
| CCCCCCNC(=O)n1cc(F)c(=O)[nH]c1=O | -0.86% (inactive) |
| Cc1cc(O)c2ccccc2c1O | 39.1% (inactive) |
| CSc1ccc2c(c1)C(N1CCN(C)CC1)Cc1ccccc1S2 (stereo not drawn) | 6.51% (inactive) |
| Oc1c(Cl)cc(Cl)c2cccnc12 | 8.07% (inactive) |

| SMILES | inhibition |
| --- | --- |
| CC(C)(C)C(=O)OCOP(=O)(COCCn1cnc2c(N)ncnc21)OCOC(=O)C(C)(C)C | -0.94% (inactive) |
| Nc1nc(=S)c2[nH]cnc2[nH]1 | 3.34% (inactive) |
| O=C(CCl)c1ccc(Cl)cc1Cl | -8.03% (inactive) |
| Oc1c(Cl)cc(Cl)cc1Sc1cc(Cl)cc(Cl)c1O | 40.3% (inactive) |
| Cc1ccccc1C(=O)Nc1ccc(C(=O)N2CCCC(N(C)C)c3ccccc32)cc1 (stereo not drawn) | -7.07% (inactive) |
| CC(=O)[C@]1(O)Cc2c(O)c3c(c(O)c2[C@@H](O[C@H]2C[C@H](N)[C@H](O)[C@H](C)O2)C1)C(=O)c1ccccc1C3=O | -128% (inactive) |
| COc1cc(NCc2ccc3nc(N)nc(N)c3c2C)cc(OC)c1OC | 38% (inactive) |
| CC[C@@]1(O)C(=O)OCc2c1cc1n(c2=O)Cc2c-1nc1ccccc1c2/C=N/OC(C)(C)C | -2.02% (inactive) |
| COc1ccc2cc1Oc1ccc(cc1)C[C@H]1c3c(cc4c(c3Oc3cc5c(cc3OC)CCN(C)[C@@H]5C2)OCO4)CCN1C | -3.96% (inactive) |
| NC(=NCCCCCCN=C(N)/N=C(\N)Nc1ccc(Cl)cc1)/N=C(\N)Nc1ccc(Cl)cc1 | 29.9% (inactive) |
| COc1cc2nc(N3CCN(C(=O)c4ccco4)CC3)nc(N)c2cc1OC | 28.5% (inactive) |
| O=C(CCCCCCC(=O)Nc1ccccc1)NO | 4.26% (inactive) |
| CCCOc1ccc2nc(NC(=O)OC)[nH]c2c1 | -4.03% (inactive) |
| COc1cccc2c1C(=O)c1c(O)c3c(c(O)c1C2=O)C[C@@](O)(C(C)=O)C[C@@H]3O[C@H]1C[C@H](N)[C@H](O)[C@H](C)O1 | -19.5% (inactive) |
| COC(=O)Nc1nc2ccc(C(=O)C3CC3)cc2[nH]1 | 12.7% (inactive) |
| C[C@@]12C(=O)OC(=O)[C@]1(C)C1CCC2O1 | 6.38% (inactive) |
| O=C(O)c1ccc(-n2nc(-c3ccccc3O)nc2-c2ccccc2O)cc1 | 0.21% (inactive) |
| O=C1c2c(O)ccc(O)c2C(=O)c2c(NCCNCCO)ccc(NCCNCCO)c21 | 21.1% |
| Cc1nc(Nc2ncc(C(=O)Nc3c(C)cccc3Cl)s2)cc(N2CCN(CCO)CC2)n1 | 5.32% (inactive) |
| COC(=O)Nc1nc2ccc(S(=O)c3ccccc3)cc2[nH]1 (stereo not drawn) | -8.8% (inactive) |
| COc1ccc(-c2ccc3cc(C(=O)O)ccc3c2)cc1C12CC3CC(CC(C3)C1)C2 | 29% (inactive) |

| SMILES | inhibition |
| --- | --- |
| O=c1[nH]c(=O)n([C@H]2C[C@H](O)[C@@H](CO)O2)cc1F | -6.04% (inactive) |
| C=CC(=O)Nc1cc2c(Nc3ccc(F)c(Cl)c3)ncnc2cc1OCCCN1CCOCC1 | 10.8% (inactive) |
| CNC(=O)c1ccccc1Sc1ccc2c(/C=C/c3ccccn3)n[nH]c2c1 | -17.9% (inactive) |
| CCCCCCCCCCCCCC[N+](C)(C)C | 3.96% (inactive) |
| CCCCC1C(=O)N(c2ccccc2)N(c2ccc(O)cc2)C1=O (stereo not drawn) | 0.82% (inactive) |
| C[n+]1c2cc(N)ccc2cc2ccc(N)cc21 (tested in a mixture with another compound) | 65.3% |
| CCCSc1ccc2nc(NC(=O)OC)[nH]c2c1 | -2.9% (inactive) |
| CCN(CC)CCNc1ccc(CO)c2sc3ccccc3c(=O)c12 | 37.2% |
| CNC(=O)c1cc(Oc2ccc(NC(=O)Nc3ccc(Cl)c(C(F)(F)F)c3)cc2)ccn1 | 64.8% |
| COC(=O)[C@H]1[C@H]2C[C@@H]3c4[nH]c5cc(OC)ccc5c4CCN3C[C@H]2C[C@@H](OC(=O)/C=C/c2ccc(O)c(OC)c2)[C@@H]1OC | 7.92% (inactive) |
| CC(C)C[C@H](NC(=O)[C@H](CCc1ccccc1)NC(=O)CN1CCOCC1)C(=O)N[C@@H](Cc1ccccc1)C(=O)N[C@@H](CC(C)C)C(=O)[C@@]1(C)CO1 | -1.98% (inactive) |
| [O-][n+]1ccccc1SSc1cccc[n+]1[O-] | -10.6% (inactive) |
| CCN(CC)CCNC(=O)c1c(C)[nH]c(/C=C2\C(=O)Nc3ccc(F)cc32)c1C | 91.7% |
| CN1CC[C@H](c2c(O)cc(O)c3c(=O)cc(-c4ccccc4Cl)oc23)[C@H](O)C1 | 48.6% (inactive) |
| Cc1cc(C2CCCCC2)n(O)c(=O)c1 | -2.62% (inactive) |
| CC(C)(C)C1CCC(CC2=C(O)c3ccccc3C(=O)C2=O)CC1 (stereo not drawn) | -2.09% (inactive) |
| CCC(C)n1ncn(-c2ccc(N3CCN(c4ccc(OC[C@H]5CO[C@](Cn6cncn6)(c6ccc(Cl)cc6Cl)O5)cc4)CC3)cc2)c1=O (stereo partly drawn) | -9.45% (inactive) |
| Cc1cc(C)c(/C=C2\C(=O)Nc3ccccc32)[nH]1 | 45.3% (inactive) |
| Cn1cnc([N+](=O)[O-])c1Sc1ncnc2nc[nH]c12 | -0.72% (inactive) |
| O=[N+]([O-])c1ccc(O)c2ncccc12 | 37.6% (inactive) |
| COC(=O)Nc1nc2ccc(C(=O)c3ccccc3)cc2[nH]1 | -18.7% (inactive) |

| SMILES | inhibition |
| --- | --- |
| Cc1ccc(Nc2nccc(N(C)c3ccc4c(C)n(C)nc4c3)n2)cc1S(N)(=O)=O | 5.82% (inactive) |
| CCc1nc(N)nc(N)c1-c1ccc(Cl)cc1 | 11.7% (inactive) |
| C=C(C)[C@H]1Cc2c(ccc3c2O[C@@H]2COc4cc(OC)c(OC)cc4[C@@H]2C3=O)O1 | -6.37% (inactive) |
| Cc1ccc2nc(N)[nH]c(=O)c2c1Sc1ccncc1 | 50.1% |
| CN(C)c1ccc2nc3ccc(=[N+](C)C)cc-3sc2c1 | -350% (inactive) |
| COc1c(C)c2c(c(O)c1C/C=C(\C)CCC(=O)OCCN1CCOCC1)C(=O)OC2 | 1.51% (inactive) |
| CCCCCCCCCCCCCCCC[n+]1ccccc1 | -110% (inactive) |
| O=C(Nc1ccc([N+](=O)[O-])cc1Cl)c1cc(Cl)ccc1O | 49.9% (inactive) |
| Cc1ccc([N+](=O)[O-])[c]2c1[O][Hg]2 | 33.5% (inactive) |
| COc1cc2c(c(OC)c1OC)-c1ccc(OC)c(=O)cc1[C@@H](NC(C)=O)CC2 | -2.55% (inactive) |
| COCc1c(C(C)C)nc(C(C)C)c(/C=C/[C@@H](O)C[C@@H](O)CC(=O)O)c1-c1ccc(F)cc1 | 1.86% (inactive) |
| Oc1c(I)cc(I)c2cccnc12 | 1.27% (inactive) |
| COc1cc([C@@H]2c3cc4c(cc3[C@H](O)[C@H]3COC(=O)[C@H]23)OCO4)cc(OC)c1OC | 3.8% (inactive) |
| CC(C)C[C@H](NC(=O)[C@H](Cc1ccccc1)NC(=O)c1cnccn1)B(O)O | 6.59% (inactive) |
| Cc1nc(N)nc(N)c1-c1ccc(Cl)c(Cl)c1 | 5.16% (inactive) |
| COc1ccc(-c2nc3ccc(C4=NNC(=O)CC4C)cc3[nH]2)cc1 (stereo not drawn) | -32.5% (inactive) |
| CC(=O)Oc1ccc(C2(c3ccc(OC(C)=O)cc3)Oc3ccccc3NC2=O)cc1 | -1.96% (inactive) |
| CC[C@]1(O)C[C@@H]2CN(CCc3c([nH]c4ccccc34)[C@@](C(=O)OC)(c3cc4c(cc3OC)N(C)[C@H]3[C@@](O)(C(=O)OC)[C@H](OC(C)=O)[C@]5(CC)C=CCN6CC[C@]43[C@@H]65)C2)C1 | -1.14% (inactive) |
| Nc1ccc2cc3ccc(N)cc3nc2c1 | -285% (inactive) |
| COc1cc(-c2ccc(=O)[nH]n2)ccc1OC(F)F | 3.71% (inactive) |
